{"source": "patent US20240117005A1", "about": "“NOVEL BICYCLIC PEPTIDES” (THE COUNCIL OF THE QUEENSLAND INSTITUTE OF MEDICAL RESEARCH, priority 2021, published 2024)", "key": {"CT26 cells": {"system": "CT26 cells", "experiment": "WST-1 cell proliferation assay, CT26", "type": "cell-based, mouse", "details": "CT26, WST-1, 72 hours", "experimental": "(§1) (A) CT26, 4T1 or MDA-MB-231 Cells were treated with inhibitors for 72 hours. Following inhibition, media was removed and replaced with WST-1 cell proliferation reagent. Absorbance was recorded at 450 nm after 1 hour. Data represent a single independent experiment performed in triplicate. Results are graphed as mean +/− standard error (SE). B) MDA-MB-231 or CT26 cancer cells were treated with vehicle control, DL-2-Batch 1 (original stock), DL-2-Batch 2 (current stock), DL-2-TBAB or linear PDL1. Cells were permeabilised and were probed with the DUOLINK ligation assay. Cover slips were mounted on glass microscope slides with ProLong nucblue glass Antifade reagent (Life Technologies). PDL1Ac and IMPα1 DUOLINK Digital images were analysed using ImageJ software (ImageJ, NIH, Bethesda, MD, USA) and graphs represent the mean DOT Fluorescent Intensity in the nucleus or the cytoplasm compartments with significant differences calculated as per one-way ANOVA comparison. (C) MDA-MB-231 or CT26 cancer cells were treated with vehicle control, DL-2-Batch 1 (Original stock), DL-2-Batch 2 (current stock), DL-2-TBAB or linear PDL1. Cells were permeabilised and were probed with the DUOLINK ligation assay. Cover slips were mounted on glass microscope slides with ProLong nucblue glass Antifade reagent (Life Technologies). PDL1-unmodified and IMPα1 DUOLINK digital images were analysed using ImageJ software (ImageJ, NIH, Bethesda, MD, USA) and graphs represent the mean DOT fluorescent intensity in the nucleus or the cytoplasm compartments with significant differences calculated as per one-way ANOVA comparison.\n(§2) 4T1, CT26 or MDA-MB-231 cancer cell lines were treated with DL-2 or DL-2-D bicyclic inhibitors for 72 hours. Following inhibition, media was removed and replaced with WST-1 cell proliferation reagent. Absorbance was recorded at 450 nm after 1 hour. Data represent a single independent experiment performed in triplicate; results are graphed as mean +/− standard error (SE)."}, "4T1 cells": {"system": "4T1 cells", "experiment": "WST-1 cell proliferation assay, 4T1", "type": "cell-based", "details": "4T1, WST-1, 72 hours", "experimental": "as §1, §2"}, "PDL1-PTM1 and IMPα1": {"biological_target": "T1, PDL1-PTM1 and IMPα1 (Homo sapiens, UniProt P52292)", "T1 construct": "endogenous in cells; host or cells: MDA-MB-231", "experiment": "Importin-α pathway screening assay (PCC co-localisation)", "type": "cell-based", "experimental": "MDA-MB-231 cells were treated with DL-2 for 4 to 96 hours or control peptide scramble and were permeabilized probed a mouse anti-IMPα1, rabbit anti-PDL1 and visualized with a donkey anti-rabbit secondary antibody conjugated to Alexa Fluor 647 or a donkey anti-mouse secondary antibody conjugated to Alexa Fluor 568. Cover slips were mounted on glass microscope slides with Prolong nucleus glass Antifade reagent (Life Technologies). PDL1 and IMPα1 digital images were analyzed using ImageJ software (ImageJ, NIH, Bethesda, MD, USA) to determine the mean fluorescent intensity (mean FI). Graphs represent the mean FI of IMPα1. Graphs also depict the PCC of PDL1/IMPα1 using ImageJ software with automatic thresholding and manual selection of regions of interest (ROIs) specific for cell nuclei to calculate the Pearson's co-efficient correlation (PCC) for each pair of antibodies. PCC values range from: −1=inverse of co-localization."}, "PDL2:IMPα1 complex": {"biological_target": "T2, PDL2:IMPα1 complex (Homo sapiens, UniProt P52292)", "T2 construct": "with concentrations ranging from 10 μM to 0.00975 μM; endogenous in cells; host or cells: MDA-MB-231", "experiment": "Binding specificity assay (DUOLINK PDL2 and IMPα1)", "type": "cell-based", "details": "MDA-MB-231, any concentration (10 μM to 0.00975 μM)", "experimental": "MDA-MB-231 cells were treated with DL-2; with concentrations ranging from 10 μM to 0.00975 μM. Cover slips were mounted on glass microscope slides with Prolong nucleus glass Antifade reagent (Life Technologies). PDL2 and IMPα1 DUOLINK Digital images were analyzed using ImageJ software (ImageJ, NIH, Bethesda, MD, USA) and graphs represent the mean DOT Fluorescent Intensity in the nucleus or the cytoplasm compartments with significant differences calculated as per Kruskal-Wallis one-way ANOVA."}, "[1]": {"system": "metastatic initiating cells (MICs) from stage IV metastatic cancer patients", "experiment": "Pre-clinical treatment of MICs from patient liquid biopsies", "type": "cell-based, human", "details": "cancer cells from NSCLC, TNBC and melanoma patients", "from_the_text": "Mesenchymal MICs were isolated from TNBC, lung cancer and melanoma patient liquid biopsies (scored for RECIST v1.1 for immunotherapy/therapeutic resistance or responsiveness (Complete Response, Partial Response or Progressive Disease) and pre-clinically screened with either vehicle control or the nuclear PDL1 inhibitor, DL-2. Samples were fixed and immunofluorescence microscopy performed on these cells with primary antibodies targeting CSV, PDL1-PTM1 (acetylated nuclear PDL1), ALDH1A1 and ABCB5. Graph represents the CFI values for CSV, NFI for PDL1- PTM1, ALDH1A1 and FI for ABCB5 measured using the ASI Digital pathology automated system to select the nucleus minus background (n≥40 cells/sample/5 patients a group)."}, "CSC": {"system": "CSC", "experiment": "CSC inhibition (Table 10 summary)", "type": "cell-based", "details": "linear peptide derivatives; change stated relative to prototype PDL1-L1"}}, "note": "No end group written: not given here. *: point of attachment. Myristyl = CCCCCCCCCCCCCC*"}
{"compound": "CCCCCCCCCCCCCC(=O)NC(C)C(=O)NC1CSCc2cc3cc(c2)CSC[C@H](NC(=O)[C@H](Cc2ccccc2)NC(=O)[C@H](C(C)CC)NC(=O)[C@H](Cc2ccccc2)NC(=O)[C@H]([C@@H](C)O)NC(=O)C(CC(C)C)NC1=O)C(=O)N[C@@H](CCCNC(C)=N)C(=O)N[C@@H](CC(C)C)C(=O)N[C@@H](CCCNC(=N)N)C(=O)N[C@@H](CCCCN)C(=O)NCC(=O)N[C@@H](CCCNC(=N)N)C(=O)NC(C(=O)N[C@@H](CCSC)C(=O)NC(CCSC)C(=O)N[C@@H](CC(=O)O)C(=O)NC(C(=O)N[C@@H](CCCCN)C(=O)NC(CCCCN)C(=O)O)C(C)C)CSC3", "note": "(mixture of isomers) [DL-2]", "values": [{"measurement": "inhibition of proliferation", "setting": "CT26 cells", "result": "significantly inhibit the proliferation"}, {"measurement": "inhibition of proliferation", "setting": "CT26 cells; listed as DL-2-TBMB", "result": "able to effectively inhibit the proliferation"}, {"measurement": "inhibition of proliferation", "setting": "4T1 cells", "result": "significantly inhibit the proliferation"}, {"measurement": "inhibition of proliferation", "setting": "4T1 cells; listed as DL-2-TBMB", "result": "able to effectively inhibit the proliferation"}, {"measurement": "nuclear expression of IMPα1", "setting": "PDL1-PTM1 and IMPα1; MDA-MB-231", "result": "No significant effect"}, {"measurement": "PCC or degree of co-localization of PDL1-PTM1 and IMPα1", "setting": "PDL1-PTM1 and IMPα1; MDA-MB-231, up to 96 hours", "result": "significantly impair"}, {"measurement": "PDL2:IMPα1 complex (DUOLINK)", "setting": "PDL2:IMPα1 complex", "result": "no significant effect"}, {"measurement": "expression of ABCB5, ALDH1A1 and PDL1-PTM1 in MICs", "setting": "[1]", "result": "inhibited expression"}]}
{"compound": "LTFIFRLRKGRMMDVKK (Myristyl-LTFIFRLRKGRMMDVKK) [PDL1-L1, Myristyl- linear peptide, prototype]", "values": [{"measurement": "Potency (CSC inhibition)", "setting": "CSC", "result": "Weak"}]}
